Structures can show the parent of a compound that is named as a salt.
Assays:
unresectable HCC = assay: Phase 3 study E7080-G000-304: OS and PFS by baseline serum FGF21 level; type: in vivo, human; conditions: for MST for PFS, high FGF21 group / MST for PFS, low FGF21 group / HR for PFS, high vs low FGF21 group: PFS by RECIST 1.1 (IIR); for MST for PFS, high FGF21 group / median OS (MST), high FGF21 group: baseline serum FGF21 at or above third quartile cutoff (688 ng/L); for MST for PFS, low FGF21 group / median OS (MST), low FGF21 group: baseline serum FGF21 below third quartile cutoff (688 ng/L); for HR for PFS, high vs low FGF21 group / HR for OS, high vs low FGF21 group: univariate Cox regression, third quartile cutoff (688 ng/L); for difference of PFS (RECIST 1.1) between high and low baseline FGF21 groups: third quantile cutoff point
Method: E7080-G000-304 was a multicenter, randomized, open-label, noninferiority Phase 3 study to compare the efficacy and safety of lenvatinib versus sorafenib as a first-line systemic treatment in subjects with unresectable HCC. Subjects were randomly assigned in a 1:1 ratio to treatment with either lenvatinib 12 mg (baseline body weight [BW]≥60 kg) or 8 mg (baseline BW<60 kg) given once daily (QD) orally or sorafenib 400 mg given twice daily (BID) orally. Subjects were stratified by region, presence or absence of macroscopic portal vein invasion (MPVI) or extrahepatic spread (EHS) or both, Eastern Cooperative Oncology Group Performance Status (ECOG PS) 0 or 1, and BW (<60 kg or ≥60 kg). A total of 951 subjects (476 lenvatinib; 475 sorafenib) were enrolled and treated. Lenvatinib and sorafenib were self-administered by the subjects orally, at the same time each day (consistently either with or without food) in continuous 28-day cycles. Subjects received study treatment until disease progression, development of unacceptable toxicity, subject request, or withdrawal of consent.
Of the 954 subjects enrolled in the clinical study and assigned to receive lenvatinib or sorafenib, 407 subjects (42.7% of all ITT subjects, lenvatinib arm, n=279 and sorafenib arm, n=128) were included in blood serum biomarker assay.
Serum samples were collected at Day 1 of Cycle1 (pre-treatment). The serum levels of FGF21 at Day 1 of Cycle 1 (baseline level) in Samples from 279 subjects in the lenvatinib arm and 128 subjects in the sorafenib arm (total 407 subjects) were determined by enzyme-linked immunosorbent assay (ELISA). All biomarker data were transferred to study data tabulation model (SDTM) in accordance with the data transfer specification developed separately. Correlation between the serum baseline level of FGF21 and clinical outcome, such as progression free survival (PFS) was assessed. PFS was defined as the time from the date of randomization to the date of first documentation of disease progression or death.
All statistical analyses were performed by the Clinical Data Science department at Eisai Co., Ltd. (Tokyo, Japan) after the clinical study was completed and a snapshot of the database was obtained on 13 Nov. 2016. For the correlation analyses with PFS, data sets based on independent imaging review (IIR) by RECIST 1.1 were used. Statistical analyses were performed using SAS version 9.3.
For each baseline level of blood serum biomarker, correlation analysis with survival outcome measures (OS and PFS) was performed using univariate Cox regression for the lenvatinib arm and the sorafenib arm separately.
Subjects were divided into two high-low groups based on the baseline level of each blood serum biomarker. The cutoff point was third quartile. Association between the groups and survival outcome measures (OS and PFS) was explored using univariate Cox regression and the Log-rank test with the selected cutoff points.

[1] = test system: Human FGF21-transfected HCC PLC/PRF/5 cells (FGF21-TF); assay: Antitumor activity in FGF21-TF tumor xenograft model in mice; type: in vivo, female nude mice; conditions: LEN 10 mg/kg and 30 mg/kg, SOR 30 mg/kg, orally once daily; FIG. 1
Excerpt: (§1) Methods: Human FGF21 and Mock-transfected HCC PLC/PRF/5 cells (FGF21-TF and Mock-TF, respectively) were established by using piggy-back system. To evaluate antitumor activity against these tumors, 4.2×10^6 cells of FGF21-TF or 4.3×10^6 cells of Mock-TF were subcutaneously injected into female nude mice (Charles River, Japan) with matrigel (BD Biosciences). When tumor volumes reached approximately 200-300 mm3, mice were divided into each group according to their tumor volumes and either lenvatinib mesylate (abbreviated as LEN) (10 mg/kg and 30 mg/kg) or Sorafenib tosylate (abbreviated as SOR) (30 mg/kg) was orally administered once daily. Follow-up analysis of a HCC patient-derived xenograft (PDX)-derived tumor (LI0334 HCC PDX tumor model treated with 3 mM HCl (vehicle for lenvatinib)) assessed FGF21 expression levels by immunohistochemistry. Three μm thick sections of paraffin-embedded tumor samples were de-paraffinized and hydrated. Antigen retrieval was performed by incubation of the samples in Dako REAL Target Retrieval sol. (pH6.0) (Dako) for 30 minutes. Endogenous hydrogen peroxidase activity was blocked by incubating the slides for 10 min with 3% hydrogen peroxide. The slides were incubated overnight with primary antibody, human rabbit anti-human FGF21 (ab64857. Abcam) at 1:100 in 1% BSA/PBS at 4° C. […]

[2] = test system: Mock-transfected HCC PLC/PRF/5 cells (Mock-TF); assay: Antitumor activity in Mock-TF tumor xenograft model in mice; type: in vivo, female nude mice; conditions: LEN 10 mg/kg and 30 mg/kg, SOR 30 mg/kg, orally once daily; FIG. 1
Excerpt: as §1

LI0334 HCC PDX tumor = conditions: PDX tumor highly expressing FGF21; reported in Matsuki et al., AACR 2017; cited from earlier work
[3] = Relative body weight changes in mice with FGF21-TF and Mock-TF tumors; type: in vivo, female nude mice; conditions: LEN 10 mg/kg and 30 mg/kg, SOR 30 mg/kg, orally once daily; FIG. 2
Excerpt: as §1

CNC(=O)c1cc(Oc2ccc(NC(=O)Nc3ccc(Cl)c(C(F)(F)F)c3)cc2)ccn1 [Sorafenib, 4-[4-[[4-chloro-3-(trifluoromethyl)phenyl]carbamoylamino]phenoxy]-N-methylpyridine-2-carboxamide]
MST for PFS, high FGF21 group (unresectable HCC): 2.4
MST for PFS, low FGF21 group (unresectable HCC): 5.5
HR for PFS, high vs low FGF21 group (unresectable HCC): 1.783
median OS (MST), high FGF21 group (unresectable HCC): 6.8 months
median OS (MST), low FGF21 group (unresectable HCC): 17.8 months
difference of PFS (RECIST 1.1) between high and low baseline FGF21 groups (unresectable HCC): short median PFS (RECIST 1.1) for high group than that of low group
HR for OS, high vs low FGF21 group (unresectable HCC): 3.341

COc1cc2nccc(Oc3ccc(NC(=O)NC4CC4)c(Cl)c3)c2cc1C(N)=O [Lenvatinib, 4-(3-chloro-4-(cyclopropylaminocarbonyl)aminophenoxy)-7-methoxy-6-quinolinecarboxamide]
MST for PFS, high FGF21 group (unresectable HCC): 7.5
MST for PFS, low FGF21 group (unresectable HCC): 8.0
HR for PFS, high vs low FGF21 group (unresectable HCC): 1.184
median OS (MST), high FGF21 group (unresectable HCC): 10.9 months
median OS (MST), low FGF21 group (unresectable HCC): 18.0 months
difference of PFS (RECIST 1.1) between high and low baseline FGF21 groups (unresectable HCC): no clear difference of PFS
HR for OS, high vs low FGF21 group (unresectable HCC): 1.745

COc1cc2nccc(Oc3ccc(NC(=O)NC4CC4)c(Cl)c3)c2cc1C(N)=O [LEN, lenvatinib mesylate]
antitumor activity (tumor volume changes) in the FGF21-TF model [1]: showed activity
antitumor activity (tumor volume changes) in the Mock-TF model [2]: showed antitumor activity
inhibition of the LI0334 HCC PDX tumor model (LI0334 HCC PDX tumor): inhibited by LEN
body weight losses associated with tumor presence compared to non-treatment [3]: Neither treatment exacerbated body weight losses

CNC(=O)c1cc(Oc2ccc(NC(=O)Nc3ccc(Cl)c(C(F)(F)F)c3)cc2)ccn1 [SOR, Sorafenib tosylate]
antitumor activity (tumor volume changes) in the FGF21-TF model [1]: only LEN showed activity
antitumor activity (tumor volume changes) in the Mock-TF model [2]: showed antitumor activity
body weight losses associated with tumor presence compared to non-treatment [3]: Neither treatment exacerbated body weight losses

— US12504431B2, “Biomarkers for a therapy comprising a sorafenib compound” (Eisai R&D Management Co., Ltd., priority 2018, dated 2025)
